This note sets out measurements from patent US20260028354A1, “TETRAHYDRONAPHTHALENE DERIVATIVES AS ESTROGEN RECEPTOR DEGRADERS” (REGENT OF THE UNIVERSITY OF MICHIGAN, priority 2022, published 2026).

A short description of this assay: Western blot analysis for "B" compounds. The class given is cell-based. The following applies: read-out: Traditional Western Degradation Potency (DC50). In a few lines: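 Compound-treated cells lysed in RIPA buffer with protease inhibitors; equal protein (BCA) run on 10% SDS-PAGE, transferred to PVDF and probed with target antibodies. Band intensities quantified by densitometry and normalized to GAPDH.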
(In general: Immunoblotting shows a protein as a band on a membrane.)

Take `O=C1CCC(N2Cc3cc4c(cc3C2=O)CN(CC(=O)N2CCC3(C2)CN(c2ccc([C@@H]5c6ccc(O)cc6CC[C@@H]5c5ccccc5)cc2)C3)C4)C(=O)N1` (mixture of isomers) [Compound B184, 3-(6-(2-(2-(4-((1R,2S)-6-hydroxy-2-phenyl-1,2,3,4-tetrahydronaphthalen-1-yl)phenyl)-2,6-diazaspiro[3.4]octan-6-yl)-2-oxoethyl)-1-oxo-3,5,6,7-tetrahydropyrrolo[3,4-f]isoindol-2(1H)-yl)piperidine-2,6-dione]: the DC50 (in general, the concentration giving 50% degradation) was < 10 nM.
Take `O=C1CCC(N2C(=O)c3cc4c(cc3C2=O)CN(CC2(F)CN(CC3CCN(c5ccc([C@@H]6c7ccc(O)cc7CC[C@@H]6c6ccccc6)cc5)CC3)C2)C4)C(=O)N1` (stereo partly drawn) [Compound B271, 2-(2,6-dioxopiperidin-3-yl)-6-((3-fluoro-1-((1-(4-((1R,2S)-6-hydroxy-2-phenyl-1,2,3,4-tetrahydronaphthalen-1-yl)phenyl)piperidin-4-yl)methyl)azetidin-3-yl)methyl)-6,7-dihydropyrrolo[3,4-f]isoindole-1,3(2H,5H)-dione]: the DC50 was > 100 nM.
As for `O=C1CCC(N2C(=O)c3cc4c(cc3C2=O)CN(C2CCC(C(=O)N3CCN(c5ccc([C@@H]6c7ccc(O)cc7CC[C@@H]6c6ccccc6)cc5)CC3)CC2)C4)C(=O)N1` (stereo partly drawn) [Compound B77, 2-(2,6-dioxopiperidin-3-yl)-6-(4-(4-(4-((1R,2S)-6-hydroxy-2-phenyl-1,2,3,4-tetrahydronaphthalen-1-yl)phenyl)piperazine-1-carbonyl)cyclohexyl)-6,7-dihydropyrrolo[3,4-f]isoindole-1,3(2H,5H)-dione], the DC50 was > 100 nM.
`O=C1CCC(N2Cc3cc4c(cc3C2=O)C(=O)N(CC2CN(CC3CCN(c5ccc([C@@H]6c7ccc(O)cc7CC[C@@H]6c6ccccc6)cc5)CC3)C2)C4)C(=O)N1` (stereo partly drawn) [Compound B305, 2-(2,6-dioxopiperidin-3-yl)-6-((1-((1-(4-((1R,2S)-6-hydroxy-2-phenyl-1,2,3,4-tetrahydronaphthalen-1-yl)phenyl)piperidin-4-yl)mcthyl)azctidin-3-yl)methyl)-2,3,5,6-tctrahydropyrrolo[3,4-f]isoindole-1,7-dione]: the DC50 is > 100 nM.
The value for `O=C1CCC(N2C(=O)c3cc4c(cc3C2=O)CN(CC(=O)N2CCC3(CC2)CCN(c2ccc([C@@H]5c6ccc(O)cc6CC[C@@H]5c5ccc(F)cc5)cc2)CC3)C4)C(=O)N1` (stereo partly drawn) [Compound B272, 2-(2,6-dioxopiperidin-3-yl)-6-(2-(9-(4-((1R,2S)-2-(4-fluorophenyl)-6-hydroxy-1,2,3,4-tetrahydronaphthalen-1-yl)phenyl)-3,9-diazaspiro[5.5]undecan-3-yl)-2-oxoethyl)-6,7-dihydropyrrolo[3,4-f]isoindole-1,3(2H,5H)-dione] was 10 to 100 nM; that for `O=C1CCC(N2C(=O)c3cc4c(cc3C2=O)CN(C2CCC(NC3CCN(c5ccc([C@@H]6c7ccc(O)cc7CC[C@@H]6c6ccccc6)cc5)CC3)CC2)C4)C(=O)N1` (stereo partly drawn) [Compound B84, 2-(2,6-dioxopiperidin-3-yl)-6-(4-((1-(4-((1R,2S)-6-hydroxy-2-phenyl-1,2,3,4-tetrahydronaphthalen-1-yl)phenyl)piperidin-4-yl)amino)cyclohexyl)-6,7-dihydropyrrolo[3,4-f]isoindole-1,3(2H,5H)-dione] was > 100 nM.
The value for `O=C1CCC(N2C(=O)c3cc4c(cc3C2=O)CN(CC(=O)N2CCC3(CC2)CN(c2ccc([C@@H]5c6ccc(O)cc6CC[C@@H]5c5ccccc5)cc2)C3)C4)C(=O)N1` (mixture of isomers) [Compound B186, 2-(2,6-dioxopiperidin-3-yl)-6-(2-(2-(4-((1R,2S)-6-hydroxy-2-phenyl-1,2,3,4-tetrahydronaphthalen-1-yl)phenyl)-2,7-diazaspiro[3.5]nonan-7-yl)-2-oxoethyl)-6,7-dihydropyrrolo[3,4-f]isoindole-1,3(2H,5H)-dione] was 10 to 100 nM.
